1 molecule from patent publication US20120172344A1, “INSULIN-PRODUCING CELL INDUCER, GLUCOSE INTAKE ENHANCER, AND THERAPEUTIC AGENT FOR DIABETES OR DIABETES COMPLICATIONS” (KYUSHU UNIVERSITY, NATIONAL UNIVERSITY CORPORATION, priority 2009, published 2012) can be followed below.

The test system of the assay is Tg23 mice. The assay is described as follows: Experimental Example 5: β-cell neogenesis and electron microscopy of pancreas. Type of assay: in vivo, mouse. As for the experimental part: Pancreases were fixed in 10% formalin, embedded in paraffin, and sliced into sections having a thickness of 2 μm. The sections were immunostained with overnight incubation at 4° C. in dilution solutions containing various primary antibodies described below.
Primary antibodies: Anti-insulin antibody (dilution rate 1:500; DAKO), anti-glucagon antibody (dilution rate 1:500; Linco Research Inc.), anti-DBA antibody (dilution rate 1:300; Vector Laboratories), anti-Pdx-1 antibody (dilution rate 1:1000; kindly provided by Chris V. E. Wright, Vanderbilt University), anti-collagen type IV antibody (dilution rate 1:250; PROGEN Biotechnik), and anti-Glut 4 antibody (dilution rate 1:1000; Chemicon).
The primary antibodies were detected by immunofluorescence labeling using secondary antibodies conjugated with Alexa 488 or Alexa 568 (1:200; Molecular Probes); third antibody conjugated with biotin-labeled secondary antibodies and streptavidin Alexa 488 or Alexa 568 (1:800; Vector Laboratories); or by an immunoperoxidase staining method using biotin-labeled secondary antibodies. Staining was visualized with diaminobenzidine. […] Immunofluorescence intensity was measured in random fields (n=30/section) using LSM Zeiss software, and the result was expressed as average pixel intensity.
All pancreatic islets, glucagon positive cells, and insulin-positive cells existing on a single pancreas section were photographed on a Keyence Biorevo microscope, and five to seven sections corresponding to areas that are at least 150 μm apart from one another were evaluated for a single pancreas (a single group includes five to eight males and six to nine females). Areas of β-cells and pancreatic islets were measured for each of the sections using Image Joint and Dynamic Cell Count software (Keyence). […]
Experimental Example 5: Effect of estradiol administration (III) Tg23 mice (23-24 weeks of age) were divided into two groups (each group: n=4 to 10): an estradiol administration group and a control group. […] Then, blood glucose levels of these mice were monitored every week. […]

`C[C@]12CC[C@@H]3c4ccc(O)cc4CC[C@H]3[C@@H]1CC[C@@H]2O` [estradiol, 17β-estradiol]: under “Tg23 mice 23-24 weeks of age, Tx+E group vs Tg group”, the “neogenesis of β-cells (insulin-producing cells and Pdx-1 in pancreatic duct epithelial cells)” value is listed as “enhanced”. Further, the “mature β-cells” value (Treatment group, 48 weeks of age, electron microscope) is on record as “formed”. The “insulin secretory granules in pancreatic tissue (electron microscope)” value (Tx+E group (Treatment), 48 weeks of age) is recorded as “observed”.
